Patent publication US20250332178A1, “METHODS OF TREATING MYCOBACTERIAL INFECTIONS USING TETRACYCLINE COMPOUNDS” (priority 2018, published 2025)
Read-outs that look alike come from different tables or passages of the source.

What was measured:
[1] = test system: rapid-growing mycobacteria (RGM) isolates; assay: MIC (CLSI broth dilution), all RGM isolates; format: cell-based, nontuberculous mycobacteria; settings: all 50 RGM isolates
M. abscessus complex = assay: MIC (CLSI broth dilution), RGM isolates; format: cell-based
M. chelonae = assay: MIC (CLSI broth dilution), RGM isolates; format: cell-based
M. fortuitum group = assay: MIC (CLSI broth dilution), RGM isolates; format: cell-based
M. immunogenum group = assay: MIC (CLSI broth dilution), RGM isolates; format: cell-based; settings: M. immunogenum
M. mucogenium group = assay: MIC (CLSI broth dilution), RGM isolates; format: cell-based
M. smegmatis group = assay: MIC (CLSI broth dilution), RGM isolates; format: cell-based

CO[C@@]1(NC(=O)Cc2cccs2)C(=O)N2C(C(=O)O)=C(COC(N)=O)CS[C@@H]21 [FOX, cefoxitin]
< 16 µg/mL: MIC (M. fortuitum group; Mycolicibacterium fortuitum, isolate 33, M. fortuitum group, M. senegalense, read-out: MIC)
32 µg/mL: MIC50 ([1]; read-out: MIC50) | MIC (M. abscessus complex; Mycobacteroides abscessus, isolate 1, M. abscessus complex, erm gene type MAB30, read-out: MIC) | MIC (M. abscessus complex; Mycobacteroides abscessus, isolate 2, M. abscessus complex, erm gene type MAB30, read-out: MIC) | MIC (M. abscessus complex; Mycobacteroides abscessus, isolate 3, M. abscessus complex, erm gene type MAB30, read-out: MIC) | MIC (M. abscessus complex; Mycobacteroides abscessus, isolate 4, M. abscessus complex, erm gene type massiliense, read-out: MIC) | MIC (M. abscessus complex; Mycobacteroides abscessus, isolate 5, M. abscessus complex, erm gene type massiliense/subsp. abs hybrid, read-out: MIC) | MIC (M. abscessus complex; Mycobacteroides abscessus, isolate 6, M. abscessus complex, erm gene type Type 1 abscessus, read-out: MIC) | MIC (M. abscessus complex; Mycobacteroides abscessus, isolate 7, M. abscessus complex, erm gene type Type 1 abscessus, read-out: MIC) | MIC (M. abscessus complex; Mycobacteroides abscessus, isolate 8, M. abscessus complex, erm gene type Type 1 abscessus, read-out: MIC) | MIC (M. abscessus complex; Mycobacteroides abscessus, isolate 9, M. abscessus complex, erm gene type Type 1 abscessus, read-out: MIC) | MIC (M. abscessus complex; Mycobacteroides abscessus, isolate 10, M. abscessus complex, erm gene type Type 1 abscessus, read-out: MIC) | MIC (M. abscessus complex; Mycobacteroides abscessus, isolate 11, M. abscessus complex, erm gene type Type 6 abscessus, read-out: MIC) | MIC (M. abscessus complex; Mycobacteroides abscessus, isolate 12, M. abscessus complex, erm gene type Type 6 abscessus, read-out: MIC) | MIC (M. abscessus complex; Mycobacteroides abscessus, isolate 13, M. abscessus complex, erm gene type Type 6 abscessus, read-out: MIC) | MIC (M. abscessus complex; Mycobacteroides abscessus, isolate 15, M. abscessus complex, erm gene type Type 7 abscessus, read-out: MIC) | MIC (M. abscessus complex; Mycobacteroides abscessus, isolate 16, M. abscessus complex, erm gene type Type 7 abscessus, read-out: MIC) | MIC (M. abscessus complex; Mycobacteroides abscessus, isolate 17, M. abscessus complex, erm gene type Type 8 abscessus, read-out: MIC) | MIC (M. fortuitum group; Mycolicibacterium fortuitum, isolate 23, M. fortuitum group, M. fortuitum, read-out: MIC) | MIC (M. fortuitum group; Mycolicibacterium fortuitum, isolate 25, M. fortuitum group, M. fortuitum, read-out: MIC) | MIC (M. fortuitum group; Mycolicibacterium fortuitum, isolate 26, M. fortuitum group, M. porcinum, read-out: MIC) | MIC (M. fortuitum group; Mycolicibacterium fortuitum, isolate 27, M. fortuitum group, M. porcinum, read-out: MIC) | MIC (M. fortuitum group; Mycolicibacterium fortuitum, isolate 28, M. fortuitum group, M. porcinum/M. boenickei, read-out: MIC) | MIC (M. fortuitum group; Mycolicibacterium fortuitum, isolate 29, M. fortuitum group, M. porcinum/M. boenickei, read-out: MIC) | MIC (M. fortuitum group; Mycolicibacterium fortuitum, isolate 31, M. fortuitum group, M. senegalense, read-out: MIC) | MIC (M. fortuitum group; Mycolicibacterium fortuitum, isolate 32, M. fortuitum group, M. senegalense, read-out: MIC) | MIC (M. fortuitum group; Mycolicibacterium fortuitum, isolate 34, M. fortuitum group, M. senegalense, read-out: MIC)
> 64 µg/mL: MIC90 ([1]; read-out: MIC90) | MIC (M. chelonae; Mycobacteroides chelonae, isolate 18, M. chelonae, read-out: MIC) | MIC (M. chelonae; Mycobacteroides chelonae, isolate 19, M. chelonae, read-out: MIC) | MIC (M. chelonae; Mycobacteroides chelonae, isolate 20, M. chelonae, read-out: MIC) | MIC (M. chelonae; Mycobacteroides chelonae, isolate 21, M. chelonae, read-out: MIC) | MIC (M. chelonae; Mycobacteroides chelonae, isolate 22, M. chelonae, read-out: MIC) | MIC (M. fortuitum group; Mycolicibacterium fortuitum, isolate 24, M. fortuitum group, M. fortuitum, read-out: MIC) | MIC (M. immunogenum group; isolate 35, M. immunogenum group, read-out: MIC) | MIC (M. immunogenum group; isolate 36, M. immunogenum group, read-out: MIC) | MIC (M. immunogenum group; isolate 37, M. immunogenum group, read-out: MIC) | MIC (M. immunogenum group; isolate 38, M. immunogenum group, read-out: MIC) | MIC (M. smegmatis group; Mycolicibacterium smegmatis, isolate 49, M. smegmatis group, M. goodii, read-out: MIC)
≤ 16 µg/mL: MIC (M. fortuitum group; Mycolicibacterium fortuitum, isolate 30, M. fortuitum group, M. porcinum/M. boenickei, read-out: MIC) | MIC (M. mucogenium group; isolate 39, M. mucogenicum group, M. mucogenicum, read-out: MIC) | MIC (M. mucogenium group; isolate 40, M. mucogenicum group, M. mucogenicum, read-out: MIC) | MIC (M. mucogenium group; isolate 41, M. mucogenicum group, M. mucogenicum, read-out: MIC) | MIC (M. mucogenium group; isolate 42, M. mucogenicum group, M. mucogenicum, read-out: MIC) | MIC (M. mucogenium group; isolate 43, M. mucogenicum group, M. phocaicum, read-out: MIC) | MIC (M. mucogenium group; isolate 44, M. mucogenicum group, M. phocaicum, read-out: MIC) | MIC (M. mucogenium group; isolate 45, M. mucogenicum group, M. phocaicum, read-out: MIC) | MIC (M. mucogenium group; isolate 46, M. mucogenicum group, M. phocaicum, read-out: MIC) | MIC (M. mucogenium group; isolate 47, M. mucogenicum group, M. phocaicum, read-out: MIC) | MIC (M. mucogenium group; isolate 48, M. mucogenicum group, M. phocaicum, read-out: MIC)
64 µg/mL: MIC (M. abscessus complex; Mycobacteroides abscessus, isolate 14, M. abscessus complex, erm gene type Type 6 abscessus, read-out: MIC) | MIC (M. smegmatis group; Mycolicibacterium smegmatis, isolate 50, M. smegmatis group, M. wolinskyi, read-out: MIC)

C[C@@H](O)[C@H]1C(=O)N2C(C(=O)O)=C(SCCN=CN)C[C@H]12 [IPM, imipenem]
16 µg/mL: MIC90 [1] | MIC (M. abscessus complex; isolate 2, M. abscessus complex, erm gene type MAB30) | MIC (M. abscessus complex; isolate 5, M. abscessus complex, erm gene type massiliense/subsp. abs hybrid) | MIC (M. abscessus complex; isolate 9, M. abscessus complex, erm gene type Type 1 abscessus) | MIC (M. abscessus complex; isolate 10, M. abscessus complex, erm gene type Type 1 abscessus) | MIC (M. abscessus complex; isolate 12, M. abscessus complex, erm gene type Type 6 abscessus) | MIC (M. chelonae; isolate 18, M. chelonae) | MIC (M. chelonae; isolate 19, M. chelonae) | MIC (M. chelonae; isolate 20, M. chelonae) | MIC (M. chelonae; isolate 22, M. chelonae) | MIC (M. immunogenum group; isolate 35, M. immunogenum group) | MIC (M. immunogenum group; isolate 37, M. immunogenum group)
4 µg/mL: MIC (M. fortuitum group; isolate 24, M. fortuitum group, M. fortuitum) | MIC (M. fortuitum group; isolate 27, M. fortuitum group, M. porcinum) | MIC (M. fortuitum group; isolate 29, M. fortuitum group, M. porcinum/M. boenickei) | MIC (M. smegmatis group; isolate 49, M. smegmatis group, M. goodii) | MIC (M. smegmatis group; isolate 50, M. smegmatis group, M. wolinskyi)
≤2 µg/mL: MIC (M. fortuitum group; isolate 23, M. fortuitum group, M. fortuitum) | MIC (M. fortuitum group; isolate 25, M. fortuitum group, M. fortuitum) | MIC (M. fortuitum group; isolate 26, M. fortuitum group, M. porcinum) | MIC (M. fortuitum group; isolate 30, M. fortuitum group, M. porcinum/M. boenickei) | MIC (M. fortuitum group; isolate 31, M. fortuitum group, M. senegalense) | MIC (M. fortuitum group; isolate 32, M. fortuitum group, M. senegalense) | MIC (M. fortuitum group; isolate 33, M. fortuitum group, M. senegalense) | MIC (M. fortuitum group; isolate 34, M. fortuitum group, M. senegalense) | MIC (M. mucogenium group; isolate 39, M. mucogenicum group, M. mucogenicum) | MIC (M. mucogenium group; isolate 40, M. mucogenicum group, M. mucogenicum) | MIC (M. mucogenium group; isolate 41, M. mucogenicum group, M. mucogenicum) | MIC (M. mucogenium group; isolate 42, M. mucogenicum group, M. mucogenicum) | MIC (M. mucogenium group; isolate 43, M. mucogenicum group, M. phocaicum) | MIC (M. mucogenium group; isolate 44, M. mucogenicum group, M. phocaicum) | MIC (M. mucogenium group; isolate 45, M. mucogenicum group, M. phocaicum) | MIC (M. mucogenium group; isolate 46, M. mucogenicum group, M. phocaicum) | MIC (M. mucogenium group; isolate 47, M. mucogenicum group, M. phocaicum) | MIC (M. mucogenium group; isolate 48, M. mucogenicum group, M. phocaicum)
32 µg/mL: MIC (M. chelonae; isolate 21, M. chelonae) | MIC (M. immunogenum group; isolate 36, M. immunogenum group) | MIC (M. immunogenum group; isolate 38, M. immunogenum group)
8 µg/mL: MIC50 [1] | MIC (M. abscessus complex; isolate 1, M. abscessus complex, erm gene type MAB30) | MIC (M. abscessus complex; isolate 3, M. abscessus complex, erm gene type MAB30) | MIC (M. abscessus complex; isolate 4, M. abscessus complex, erm gene type massiliense) | MIC (M. abscessus complex; isolate 6, M. abscessus complex, erm gene type Type 1 abscessus) | MIC (M. abscessus complex; isolate 7, M. abscessus complex, erm gene type Type 1 abscessus) | MIC (M. abscessus complex; isolate 8, M. abscessus complex, erm gene type Type 1 abscessus) | MIC (M. abscessus complex; isolate 11, M. abscessus complex, erm gene type Type 6 abscessus) | MIC (M. abscessus complex; isolate 13, M. abscessus complex, erm gene type Type 6 abscessus) | MIC (M. abscessus complex; isolate 14, M. abscessus complex, erm gene type Type 6 abscessus) | MIC (M. abscessus complex; isolate 15, M. abscessus complex, erm gene type Type 7 abscessus) | MIC (M. abscessus complex; isolate 16, M. abscessus complex, erm gene type Type 7 abscessus) | MIC (M. abscessus complex; isolate 17, M. abscessus complex, erm gene type Type 8 abscessus) | MIC (M. fortuitum group; isolate 28, M. fortuitum group, M. porcinum/M. boenickei)
